Results taken from ChEMBL document CHEMBL5233292, “Biscroyunoid A, an Anti-Hepatic Fibrotic 19-nor-Clerodane Diterpenoid Dimer with a C-16-C-12' Linkage from Croton yunnanensis” (J Nat Prod, 2023).
The source made the active and inactive calls. No cut-off for these calls is given here.

How the values were obtained:
[1] = test system: LX-2; test: Anti-hepatic fibrosis activity in human LX2 cells assessed as inhibition of TGFbeta1-induced alpha-SMA expression at 20 to 40 uM measured after 48 hrs by western blot analysis; format: functional, cell-based; conditions: dose 20-40 µM
[2] = test system: LX-2; test: Anti-hepatic fibrosis activity in human LX2 cells assessed as inhibition of TGFbeta1-induced collagen I expression at 20 to 40 uM measured after 48 hrs by western blot analysis; format: functional, cell-based; conditions: dose 20-40 µM
[3] = test system: LX2; test: Inhibition of TGF-beta1/Smad2/3 signaling in TGF-beta1-stimulated human LX-2 cells assessed as reduction in Smad3 phosphorylation at 20 to 40 uM by western blot analysis; format: cell-based; conditions: dose 20-40 µM
[4] = test system: LX-2; test: Anti-hepatic fibrosis activity in human LX2 cells assessed as inhibition of TGFbeta1-induced fibronectin expression measured after 48 hrs by immunofluorescence analysis; format: functional, cell-based; conditions: dose 20-40 µM
[5] = Cytotoxicity against human LX2 cells at 20 to 40 uM; format: toxicity, cell-based; conditions: lx-2, 40 µM, dose 20-40 µM
[6] = test system: LX2; test: Inhibition of TGF-beta1/Smad2/3 signaling in TGF-beta1-stimulated human LX-2 cells assessed as reduction in Smad2 phosphorylation at 20 to 40 uM by western blot analysis; format: cell-based; conditions: dose 20-40 µM
[7] = test system: LX2; test: Inhibition of TGF-beta1/Smad2/3 signaling in TGF-beta1-stimulated human LX-2 cells assessed as reduction in Smad2/3 translocation from cytoplasm to nucleus at 40 uM by DAPI staining based fluorescence analysis; format: cell-based

With `COC(=O)C1=CC[C@H]2[C@@]3(CC[C@@H](C)[C@]24C[C@@H](c2occc2[C@H]2C[C@@]56[C@H](O2)O[C@]2(CC[C@H]5C)C(C(=O)OC)=CCC[C@H]62)c2ccoc2[C@@H]4O3)C1` the Activity [1] was “Active”, the Activity [2] was “Active” and the inhibition [3] was “Active”. The Activity [4] was “Dose-Dependent Effect”, the Activity [5] was “Non-Toxic” and the inhibition [6] was “Active”. The inhibition [7] was “Active”.
